Values of other authors as cited in patent publication US6909021B2, “Method of extracting lutein from green plant materials” (Alfalfa America, Inc., priority 2003, dated 2005).

Assays:
[1] = tested on: age-related macular degeneration (AMD); conditions: dietary intake
[2] = water wash of green protein chloroplast fraction

vitamin A
effect on the rate of AMD [1]: not seen to have an effect

vitamin E
effect on the rate of AMD [1]: not seen to have an effect

CC1=C[C@H](O)CC(C)(C)[C@H]1/C=C/C(C)=C/C=C/C(C)=C/C=C/C=C(C)/C=C/C=C(C)/C=C/C1=C(C)C[C@@H](O)CC1(C)C [Lutein]
solubility in water [2]: very little solubility

[Zn] [zinc]
effect on the rate of AMD [1]: not seen to have an effect

CC1=C(/C=C/C(C)=C/C=C/C(C)=C/C=C/C=C(C)/C=C/C=C(C)/C=C/C2=C(C)CCCC2(C)C)C(C)(C)CCC1 [Beta-carotene]
effect on the rate of AMD [1]: not seen to have an effect
